For 46 compounds, EC50 results are on record in BindingDB's records for doi:10.1021/jm9811256 (Academy of Sciences of The Czech Republic, 1999).

Assay [1] in a line: Inhibitory activity against herpes simplex virus type 1 (HSV-1) thymidine kinase (TK) VMW 1837 strain.
Assay [2] is described as follows: Inhibitory activity against varicella zoster virus thymidine kinase (VZV TK-) 07/1 strain.
A short description of assay [3]: Inhibition of herpes simplex virus type 1 thymidine kinase (HSV-1 TK-) B2006 strain.
Assay [4] can be described thus: Inhibitory activity against varicella zoster virus thymidine kinase (VZV TK+) OKA strain.
Assay [5] is described as follows: Inhibitory activity against varicella zoster virus thymidine kinase (VZV TK+) YS strain.

On to `CC(C)OP(=O)(COCCn1cnc2c(N)nc(N)nc21)OC(C)C`, for which the EC50 is 214 µM in assay [1]; > 134 µM in assay [2]; 644 µM in assay [3]; > 134 µM in assay [4]; 96.6 µM in assay [5].
For `Nc1cccc2c1ncn2CCOCP(=O)(O)O`, the concentration giving a half-maximal response (EC50) was > 1470 µM in assay [1]; > 184 µM in assay [2]; > 1470 µM in assay [3]; > 184 µM in assay [4]; > 184 µM in assay [5].
Regarding `CC(C)OP(=O)(O)COCCn1cnc2c(N)ncnc21`, the EC50 is 951 µM in assay [1]; > 158 µM in assay [2]; > 1260 µM in assay [3]; > 158 µM in assay [4]; > 158 µM in assay [5].
For the compound `Nc1cc2ncn(CCOCP(=O)(O)O)c2c(O)n1`, the EC50 in assay [1] and in assay [3] was > 693 µM each time.
As for `Nc1ncc2ncn(CCOCP(=O)(O)O)c2n1`, the EC50 amounted to 256 µM in assay [1], 98.8 µM in assay [2], 219 µM in assay [4] and 102 µM in assay [5].
Consider `Nc1nc(=O)n(CCOCP(=O)(O)O)cc1Br`, for which the EC50 came out at 60.9 µM in assay [1]; 9.14 µM in assay [2]; 914 µM in assay [3]; 18.2 µM in assay [4]; 15.2 µM in assay [5].
For the compound `Nc1nc(O)nc2c1ncn2CCOCP(=O)(O)O`, the EC50 in assay [1] was > 1380 µM; in assay [2] it was > 172 µM; in assay [3], > 1380 µM; in assay [4] it was > 172 µM; in assay [5] it was > 172 µM.
In the case of `CC(C)OP(=O)(COCCn1cnc2nc(N)nc(O)c21)OC(C)C`, the EC50 in assay [1] is > 535 µM; in assay [3] it was > 535 µM; in assay [4], > 133 µM; in assay [5], > 133 µM.
In the case of `NC1=NC2N=CC=NC2C(=O)N1CCOCP(=O)(O)O` (stereo not drawn), the EC50 in assay [1] was determined as 230 µM; in assay [2], 98.9 µM; in assay [3], 230 µM; in assay [4] it was 26.3 µM; in assay [5] it was 115 µM.
For `CSc1ncnc2c1ncn2CCOCP(=O)(O)O`, the EC50 was > 1310 µM in assay [2], 164 µM in assay [4] and > 1310 µM in assay [5].
Regarding `CC(C)OP(=O)(COCCn1c(Br)nc2c(N)nc(N)nc21)OC(C)C`, the EC50 in assay [1] was > 886 µM; in assay [2], > 110 µM; in assay [3] it was > 886 µM; in assay [4], 57.6 µM; in assay [5], > 110 µM.
`Nc1nc(=O)ccn1CCOCP(=O)(O)O`: the EC50 was > 401 µM in assay [2], > 401 µM in assay [4] and 160 µM in assay [5].
In the case of `Nc1cc(N)c2ncn(CCOCP(=O)(O)O)c2n1`, the EC50 was 243 µM in assay [1]; > 174 µM in assay [2]; 522 µM in assay [3]; > 174 µM in assay [4]; > 174 µM in assay [5].
Turning to `CC(C)OP(=O)(COCCn1cnc2c(S)ncnc21)OC(C)C`, the EC50 in assay [1] is > 1060 µM; in assay [2], > 133 µM; in assay [3], > 1060 µM; in assay [4], > 133 µM; in assay [5] it was > 133 µM.
With `Nc1nnc(N)c2c1ncn2CCOCP(=O)(O)O`, the EC50 in assay [1] was 1040 µM; in assay [2], > 173 µM; in assay [3], > 693 µM; in assay [4], > 173 µM; in assay [5], > 173 µM.
Turning to `Nc1nc(Cl)c2ncn(CCOCP(=O)(O)O)c2n1`, the concentration giving a half-maximal response (EC50) was 0.747 µM in assay [1]; 0.065 µM in assay [2]; 0.487 µM in assay [3]; 0.0195 µM in assay [4]; 0.227 µM in assay [5].
For `Nc1cc2c(ncn2CCOCP(=O)(O)O)c(N)n1`, in that order: 243 µM, > 17.4 µM, 1390 µM, > 17.4 µM and > 17.4 µM.
For `CC(C)CCCCCOP(=O)(COCCn1cnc2c(N)ncnc21)OCCCCCC(C)C`, in that order: > 6.43 µM, 6.63 µM, > 6.43 µM, 4.82 µM and 4.01 µM.
On the same counts, the results for `CCOP(=O)(O)COCCn1cnc2c(N)nc(N)nc21` are 474 µM, 6.32 µM, 632 µM, 12.6 µM and 15.8 µM.
Take `CCOP(=O)(O)COCCn1cnc2c(O)nc(N)nc21`: the EC50 in assay [1] was found to be 6.3 µM; in assay [2], 0.0126 µM; in assay [3] it was 12.6 µM; in assay [4], 0.0252 µM; in assay [5], 0.0315 µM.
As for `Nc1cnn(CCOCP(=O)(O)O)c(=O)n1`, the EC50 in assay [2], in assay [4] and in assay [5] was > 399 µM each time.
Take `CC(C)OP(=O)(COCCn1ncc(N)nc1=O)OC(C)C`: the EC50 in assay [2] was 239 µM; in assay [4], > 299 µM; in assay [5], 290 µM.
With `Nc1nc(N)c2nc(Br)n(CCOCP(=O)(O)O)c2n1`, the EC50 in assay [1] is 54.4 µM; in assay [2] it was 16.3 µM; in assay [3] it was 54.4 µM; in assay [4], 8.71 µM; in assay [5], 22.8 µM.
Consider `Nc1nc(O)c2c(ncn2CCOCP(=O)(O)O)n1`, for which the EC50 in assay [1] was > 691 µM; in assay [3], > 691 µM; in assay [4] it was 152 µM; in assay [5] it was > 172 µM.
Consider `Nc1nccc(OCCOCP(=O)(O)O)n1`, for which the EC50 in assay [1] is > 802 µM; in assay [2], > 401 µM; in assay [4], > 401 µM; in assay [5], > 401 µM.
As for `CC(C)OP(=O)(O)COCCn1cnc2c(O)nc(N)nc21`, the EC50 in assay [1] is 17.2 µM; in assay [2], 0.0151 µM; in assay [3], 17.2 µM; in assay [4], 0.0121 µM; in assay [5] it was 0.0302 µM.
For the compound `CC(C)OP(=O)(COCCn1cnc2c(O)nc(N)nc21)OC(C)C`, the EC50 in assay [1] was found to be 642 µM; in assay [2], 83 µM; in assay [3], 642 µM; in assay [4], 53.5 µM; in assay [5], 37.4 µM.
`CC(C)CCCCCOP(=O)(COCCn1cnc2nc(N)nc(O)c21)OCCCCCC(C)C`: the EC50 is > 31.1 µM in assay [1]; 50.6 µM in assay [2]; > 31.1 µM in assay [3]; 62.3 µM in assay [4]; 58.4 µM in assay [5].
For the compound `Nc1nc(F)nc2c1ncn2CCOCP(=O)(O)O`, the EC50 in assay [1] was 240 µM; in assay [2], 113 µM; in assay [3], 68.6 µM; in assay [4], 85.8 µM; in assay [5] it was 99.5 µM.
With `Nc1ncnc2c1nc(Br)n2CCOCP(=O)(O)O`, the EC50 in assay [2], in assay [4] and in assay [5] was > 142 µM in each case.
Turning to `Nc1ccnc2c1ncn2CCOCP(=O)(O)O`, the EC50 is 551 µM in assay [1]; 1100 µM in assay [2]; 734 µM in assay [3]; > 1460 µM in assay [4]; 734 µM in assay [5].
In the case of `O=P(O)(O)COCCn1cnc2c(S)ncnc21`, the EC50 was > 1370 µM in assay [1], > 172 µM in assay [2], > 1370 µM in assay [3] and > 172 µM in assay [5].
Turning to `CCOP(=O)(O)COCCn1cnc2c(N)ncnc21`, the EC50 in assay [1] worked out at 497 µM; in assay [2], 149 µM; in assay [3] it was 497 µM; in assay [4], 132 µM; in assay [5], 199 µM.
For `CC(C)OP(=O)(COCCn1cnc2c(Cl)nc(N)nc21)OC(C)C`, the values for the EC50 in assay [2], in assay [4] and in assay [5] were 22.9 µM, 33.1 µM and 25.5 µM, respectively.
As to `Nc1nc(O)c2nc(Br)n(CCOCP(=O)(O)O)c2n1`, the EC50 in assay [1] is 130 µM; in assay [2] it was 76 µM; in assay [3], > 1080 µM; in assay [4], 10.8 µM; in assay [5], 48.9 µM.
With `Cc1nc(N)nc2c1ncn2CCOCP(=O)(O)O`, the EC50 in assay [1] is 696 µM; in assay [2], > 174 µM; in assay [3], 522 µM; in assay [4] it was > 174 µM; in assay [5], > 174 µM.
In the case of `Nc1ncnc2c1ccn2CCOCP(=O)(O)O`, the EC50 stood at 551 µM in assay [1], 1100 µM in assay [3], 183 µM in assay [4] and 73.4 µM in assay [5].
In the case of `CC(C)CCCCCOP(=O)(COCCn1cnc2c(N)nc(N)nc21)OCCCCCC(C)C`, the 50% effective concentration (EC50) in assay [1] was > 31.2 µM; in assay [2], > 39 µM; in assay [3], > 31.2 µM; in assay [4], > 9.75 µM; in assay [5], 6.24 µM.
For `CC(C)OP(=O)(COCCn1c(Br)nc2c(O)nc(N)nc21)OC(C)C`, the EC50 is 530 µM in assay [1]; > 110 µM in assay [2]; > 884 µM in assay [3]; > 110 µM in assay [4]; > 110 µM in assay [5].
Consider `Nc1ccn(CCOCP(=O)(O)O)c(=O)n1`, for which the EC50 came out at 401 µM in assay [1], 602 µM in assay [2], 602 µM in assay [4] and 1600 µM in assay [5].
As to `Nc1nc(Cl)nc2c1ncn2CCOCP(=O)(O)O`, the EC50 stood at 61.7 µM in assay [2], 130 µM in assay [4] and 104 µM in assay [5].
Regarding `CC(C)OP(=O)(COCCn1cnc2c(N)nc(Cl)nc21)OC(C)C`, the concentration for a half-maximal effect (EC50) is 1.27 µM in assay [4] and 9.44 µM in assay [5].
Take `CC(C)CCCCCOP(=O)(COCCn1cnc2c(Cl)nc(N)nc21)OCCCCCC(C)C`: the EC50 was > 30 µM in assay [1]; > 3.75 µM in assay [2]; > 30 µM in assay [3]; > 3.75 µM in assay [4]; > 3.75 µM in assay [5].
Turning to `Nc1nccc2c1ncn2CCOCP(=O)(O)O`, the results for the EC50 in assay [2], in assay [4] and in assay [5] were 257 µM, 183 µM and 367 µM, respectively.
`Nc1ccn(CCOCP(=O)(O)O)c(=O)c1`: the EC50 is 302 µM in assay [2], > 402 µM in assay [4] and 261 µM in assay [5].
Turning to `Nc1nc(N)c2ncn(CCOCP(=O)(O)O)c2n1` [PMEDAP], the 50% effective concentration (EC50) was found to be 6.93 µM in assay [1], 8.67 µM in assay [2], 3.46 µM in assay [4] and 6.93 µM in assay [5].
